The values below come from article PMC11772017 (Clinical and Translational Science, 2025).

Molecules are shown by their SMILES. Where a name gives a salt, the structure may show the parent alone.

As usually defined, the Ki is a measure of affinity in units of concentration, obtained from inhibition or displacement. The Km is the substrate concentration at which the rate is half of its maximum.

The target in data set [1] is T1, CYP2D6*10 (Homo sapiens, UniProt P10635, P34S/S486T). The data set is described as follows: Inhibition of tramadol O-demethylation, CYP2D6*10 Bactosomes. Particulars: for Ki Ratio CYP2D6*10/CYP2D6*1: Ki of variant allele / Ki of CYP2D6*1.
Data set [2] deals with T2, CYP2D6*17 (Homo sapiens, UniProt P10635, R296C/S486T/T107I). The data set is described as follows: Inhibition of tramadol O-demethylation, CYP2D6*17 Bactosomes. Conditions: for Ki Ratio CYP2D6*17/CYP2D6*1: Ki of variant allele / Ki of CYP2D6*1.
The target of data set [3] is T3, CYP2D6*2 (Homo sapiens, UniProt P10635, R296C/S486T). The data set is described as follows: Inhibition of tramadol O-demethylation, CYP2D6*2 Bactosomes. Conditions: for Ki Ratio CYP2D6*2/CYP2D6*1: Ki of variant allele / Ki of CYP2D6*1.
In data set [4] the target is T4, CYP2D6*1 (Homo sapiens, UniProt P10635). The data set is described as follows: Inhibition of tramadol O-demethylation, CYP2D6*1 Bactosomes.
Data set [5] has as its target T2, CYP2D6*17.
The subject of data set [6] is CYP2D6*17. Conditions: tramadol as substrate; cited from earlier work.
The target in data set [7] is T4, CYP2D6*1.
Data set [8] concerns the target T3, CYP2D6*2.
The subject of data set [9] is CYP2D6*10. Conditions: microsomes prepared from insect cells; cited from earlier work.
Data set [10] has as its target T1, CYP2D6*10.

Consider `CC(NC(C)(C)C)C(=O)c1cccc(Cl)c1` (stereo not drawn) [Bupropion, bupropion], for which, in data set [1], the affinity, expressed as Ki, was 55.9 µM and the “Ki Ratio CYP2D6*10/CYP2D6*1” value amounted to 4.69. In addition, in data set [2], the Ki was 20.2 µM and the “Ki Ratio CYP2D6*17/CYP2D6*1” value is listed as 1.70. In addition, in data set [3], the affinity corresponds to a Ki of 11.5 µM and the “Ki Ratio CYP2D6*2/CYP2D6*1” value came out at 0.96. Further, the affinity in data set [4], expressed as Ki, was 11.9 µM.
Regarding `CN(C/C=C/C#CC(C)(C)C)Cc1cccc2ccccc12` [Terbinafine, terbinafine], in data set [1], the affinity, expressed as Ki, was 0.235 µM and the “Ki Ratio CYP2D6*10/CYP2D6*1” value is on record as 13.61. Besides, in [2], the Ki is 0.844 µM and the “Ki Ratio CYP2D6*17/CYP2D6*1” value was 48.77. Moreover, in data set [3], the Ki stood at 0.067 µM and the “Ki Ratio CYP2D6*2/CYP2D6*1” value worked out at 3.87. Also, the Ki in data set [4] came to 0.0173 µM.
For the molecule `COc1cccc(C2(O)CCCCC2CN(C)C)c1` (stereo not drawn) [Tramadol, tramadol hydrochloride], the “intrinsic clearance compared to CYP2D6*1” value in [5] (CYP2D6*17, relative to CYP2D6*1) was found to be 10%; in data set [8] (CYP2D6*2, relative to CYP2D6*1) it was 180%; in data set [10] (CYP2D6*10, relative to CYP2D6*1), 20%. In addition, the “CLint ratio CYP2D6*X/CYP2D6*1” value in [5] (CYP2D6*17/CYP2D6*1) is on record as 0.1; in data set [8] (CYP2D6*2/CYP2D6*1) it was 1.8; in data set [10] (CYP2D6*10/CYP2D6*1) it was 0.2. The Vmax in data set [5] (CYP2D6*17, O-desmethyltramadol formation) came to 5.6 pmol/min/pmol P450; in [7] (CYP2D6*1, O-desmethyltramadol formation), 22.6 pmol/min/pmol P450; in data set [8] (CYP2D6*2, O-desmethyltramadol formation) it was 39.7 pmol/min/pmol P450; in data set [10] (CYP2D6*10, O-desmethyltramadol formation), 13.6 pmol/min/pmol P450. Moreover, the Michaelis constant (Km) at 30 min was 149 µM in [5] (human, recombinant CYP2D6*17 Bactosomes, pH 7.4); 59.6 µM in data set [7] (human, recombinant CYP2D6*1 Bactosomes, pH 7.4); 59.4 µM in data set [8] (human, recombinant CYP2D6*2 Bactosomes, pH 7.4); 204 µM in data set [10] (human, recombinant CYP2D6*10 Bactosomes, pH 7.4). The “intrinsic clearance relative to CYP2D6*1” value in data set [6] was 36%. Moreover, the CLint was found to be 0.4 μL/min/pmol P450 in data set [7] (CYP2D6*1, CLint = Vmax/Km); 0.7 μL/min/pmol P450 in [8] (CYP2D6*2, CLint = Vmax/Km); 0.1 μL/min/pmol P450 in data set [10] (CYP2D6*10, CLint = Vmax/Km). Further, the “intrinsic clearance value, % of that for CYP2D6*1” value in data set [9] was 6.9%.
